Measurements as given in patent publication US4529602A, “Method for treatment or prophylaxis of gastro-intestinal disease” (priority 1981, dated 1985).
Counter-ions that a name gives are not always drawn.

Assays:
pepsin secretion = experiment: Preventive effect on pepsin secretion in pylorus-ligated rats; format: in vivo, Male SD-strain rats; settings: 100 mg/kg oral, 5 h after administration
Method: (§1) Preventive effect on acid and pepsin secretions
(§2) Male SD-strain rats (6 to 7 weeks old) were starved for 48 hours, and then the pylori were ligated. Immediately after ligation, a solution or suspension of a test compound in distilled water was administered orally into the stomachs in an amount of 0.2 ml per 100 g of body weight (Dose: 100 mg/kg). Five hours after said administration of the test compound, the rats were sacrificed and the stomachs were removed. The gastric contents were centrifuged at 2,500 rpm for 10 minutes and the gastric juice was collected as the supernatant. The concentration of pepsin in the gastric juice was determined by Anson's method (c.f., J. Gen. Physiol., 22, pp. 77-89 (1938)) using hemoglobin as the substrate, and the preventive effect of the test compound on the pepsin secretion was estimated in terms of "decrease in pepsin concentration" according to the following formula: [formula]

gastric acid secretion = experiment: Preventive effect on gastric acid secretion in pylorus-ligated rats; format: in vivo, Male SD-strain rats; settings: 100 mg/kg oral, 5 h after administration
Method: as §1, §2
On the other hand, the concentration of free acid in the gastric juice was determined by titrating said gastric juice to pH 7.0 with 0.1N NaOH, and the preventive effect of the test compound on the gastric acid secretion was estimated in terms of "the decrease in acidity of gastric juice" according to the following formula: [formula] (Results)

aspirin-induced ulcers = experiment: Effect on aspirin-induced ulcers; format: in vivo, Male Donryu-strain rats; settings: aspirin 200 mg/kg
Method: Male Donryu-strain rats (8 to 9 weeks old) were starved overnight, and a solution or suspension of a test compound in distilled water was administered orally into the stomachs in an amount of one ml per 100 g of body weight. Half an hour later, a suspension of aspirin in 0.25% CMC solution was administered orally to the rats in an amount of 0.5 ml per 100 g of body weight (Dose: 200 mg/kg). Four hours after the administration of aspirin, the rats were sacrificed and the stomachs were removed and inflated by injecting 10 ml of 1% formalin solution to fix the inner layers of the gastric walls. The stomach was then incised along the greater curvature and the lengths of the lesions were measured and summated to give ulcer index (in mm) for each animal. The preventive effect of the test compound on aspirin-induced ulcers were calculated by the following formula: [formula] (Results)

CC(C)c1cc2c(cc1S(=O)(=O)O)[C@@]1(C)CCC[C@@](C)(C(=O)O)[C@@H]1CC2 [2 (2-Dimethylaminoethyl)amine salt, sulfodehydroabietic acid di(2-dimethylaminoethylamine)salt monohydrate]
Decrease (%) in pepsin concentration (pepsin secretion; monohydrate): 92%
Decrease (%) in acidity of gastric juice (gastric acid secretion; monohydrate): 31%

CC(C)c1cc2c(cc1S(=O)(=O)O)[C@@]1(C)CCC[C@@](C)(C(=O)O)[C@@H]1CC2 [2 (2-Methoxyethyl)amine salt, sulfodehydroabietic acid di(2-methoxyethylamine)salt]
Decrease (%) in pepsin concentration (pepsin secretion): 98%

CC(C)c1cc2c(cc1S(=O)(=O)O)[C@@]1(C)CCC[C@@](C)(C(=O)O)[C@@H]1CC2 [2 Cyclohexylamine salt, sulfodehydroabietic acid di(cyclohexylamine)salt]
Decrease (%) in pepsin concentration (pepsin secretion): 71%

CC(C)c1cc2c(cc1S(=O)(=O)O)[C@@]1(C)CCC[C@@](C)(C(=O)O)[C@@H]1CC2 [2 Isopropylamine salt, sulfodehydroabietic acid di(isopropylamine)salt]
Decrease (%) in pepsin concentration (pepsin secretion): 95%
Decrease (%) in acidity of gastric juice (gastric acid secretion): 40%

CC(C)c1cc2c(cc1S(=O)(=O)O)[C@@]1(C)CCC[C@@](C)(C(=O)O)[C@@H]1CC2 [2 Morpholine salt, sulfodehydroabietic acid dimorpholine salt hemihydrate]
Decrease (%) in pepsin concentration (pepsin secretion; hemihydrate): 92%

CC(C)c1cc2c(cc1S(=O)(=O)O)[C@@]1(C)CCC[C@@](C)(C(=O)O)[C@@H]1CC2 [2/3 Aluminum salt, sulfodehydroabietic acid 2/3 aluminum ssalt 7/3 hydrate]
Decrease (%) in pepsin concentration (pepsin secretion; hydrate): 95%

CC(C)c1cc2c(cc1S(=O)(=O)O)[C@@]1(C)CCC[C@@](C)(C(=O)O)[C@@H]1CC2 [Carnosine salt, sulfodehydroabietic acic carnosine salt monohydrate]
Decrease (%) in pepsin concentration (pepsin secretion; monohydrate): 72%
Preventive effect on aspirin-induced ulcers (aspirin-induced ulcers; p.o. 2 m mol./kg (1,248 mg/kg)): 33%

CC(C)c1cc2c(cc1S(=O)(=O)O)[C@@]1(C)CCC[C@@](C)(C(=O)O)[C@@H]1CC2 [Ethylenediamine salt, sulfodehydroabietic acid ethylenediamine salt hemihydrate]
Decrease (%) in pepsin concentration (pepsin secretion; hemihydrate): 94%

CC(C)c1cc2c(cc1S(=O)(=O)O)[C@@]1(C)CCC[C@@](C)(C(=O)O)[C@@H]1CC2 [Hexamethylenediamine salt, sulfodehydroabietic acid hexamethylenediamine salt hemihydrate]
Decrease (%) in pepsin concentration (pepsin secretion; hemihydrate): 94%
Decrease (%) in acidity of gastric juice (gastric acid secretion; hemihydrate): 32%

CC(C)c1cc2c(cc1S(=O)(=O)O)[C@@]1(C)CCC[C@@](C)(C(=O)O)[C@@H]1CC2 [L-Arginine salt, sulfodehydroabietic acid L-arginine salt hemihydrate]
Decrease (%) in pepsin concentration (pepsin secretion; hemihydrate): 77%

CC(C)c1cc2c(cc1S(=O)(=O)O)[C@@]1(C)CCC[C@@](C)(C(=O)O)[C@@H]1CC2 [L-Asparagine salt, sulfodehydroabietic acid L-asparagine salt monohydrate]
Decrease (%) in pepsin concentration (pepsin secretion; monohydrate): 90%
Decrease (%) in acidity of gastric juice (gastric acid secretion; monohydrate): 38%

CC(C)c1cc2c(cc1S(=O)(=O)O)[C@@]1(C)CCC[C@@](C)(C(=O)O)[C@@H]1CC2 [L-Glutamine salt, sulfodehydroabietic acid L-glutamine salt hemihydrate]
Decrease (%) in pepsin concentration (pepsin secretion; hemihydrate): 90%
Decrease (%) in acidity of gastric juice (gastric acid secretion; hemihydrate): 39%

CC(C)c1cc2c(cc1S(=O)(=O)O)[C@@]1(C)CCC[C@@](C)(C(=O)O)[C@@H]1CC2 [L-Lysine salt, sulfodehydroabietic acid L-lysine salt monohydrate]
Decrease (%) in pepsin concentration (pepsin secretion; monohydrate): 94%

CC(C)c1cc2c(cc1S(=O)(=O)O)[C@@]1(C)CCC[C@@](C)(C(=O)O)[C@@H]1CC2 [L-S--Methylmethionine salt, sulfodehydroabietic acid S-methyl-L-methionine salt dihydrate]
Decrease (%) in pepsin concentration (pepsin secretion; dihydrate): 84%
Preventive effect on aspirin-induced ulcers (aspirin-induced ulcers; p.o. 2 m mol./kg (1,086 mg/kg)): 85%

CC(C)c1cc2c(cc1S(=O)(=O)O)[C@@]1(C)CCC[C@@](C)(C(=O)O)[C@@H]1CC2 [Tetramethylenediamine salt, sulfodehydroabietic acid tetramethylenediamine salt hemihydrate]
Decrease (%) in pepsin concentration (pepsin secretion; hemihydrate): 84%
Decrease (%) in acidity of gastric juice (gastric acid secretion; hemihydrate): 36%

sulfodehydroabietic acid (aluminum monohydroxide) [Aluminum monohydroxide salt]
Decrease (%) in pepsin concentration (pepsin secretion): 91%

sulfodehydroabietic acid di(aluminum dihydroxide)salt dihydrate [2 Aluminum dihydroxide salt]
Decrease (%) in pepsin concentration (pepsin secretion): 69%
